Data published in the NIST ThermoML archive (doi:10.1016/j.jct.2011.06.001).
± gives the expanded uncertainty stated by the source.

How the values were obtained:
[1] = molar heat capacity at constant pressure; details: 101.33 kPa, Small sample (50 mg) DSC
[2] = Molar enthalpy of transition or fusion; details: Crystal; DSC
[3] = Crystal; DTA
[4] = molar enthalpy of vaporization or sublimation; details: 333.15 K, Crystal

[Ni+2].c1cc[cH-]c1.c1cc[cH-]c1 [nickelocene]
molar heat capacity at constant pressure [J/K/mol], [1]
Details	Crystal	Gas
293 K	199.08 ± 20	171.05 ± 17
294 K	199.83 ± 20	171.62 ± 17
295 K	200.59 ± 20	172.19 ± 17
296 K	201.35 ± 20	172.76 ± 17
297 K	202.1 ± 20	173.33 ± 18
298 K	203.05 ± 21	173.9 ± 18
298.15 K	203.23 ± 21	–
299 K	203.8 ± 21	174.47 ± 18
300 K	204.37 ± 21	175.04 ± 18
301 K	205.31 ± 21	175.6 ± 18
302 K	206.07 ± 21	176.17 ± 18
303 K	206.63 ± 21	176.74 ± 18
304 K	207.2 ± 21	177.31 ± 18
305 K	208.15 ± 21	177.88 ± 18
306 K	208.9 ± 21	178.45 ± 18
307 K	209.66 ± 21	179.02 ± 18
308 K	210.6 ± 21	179.58 ± 18
309 K	211.36 ± 21	180.15 ± 18
310 K	212.11 ± 21	180.72 ± 18
311 K	212.68 ± 21	181.29 ± 18
312 K	213.43 ± 22	181.85 ± 18
313 K	214 ± 22	182.42 ± 18
314 K	214.76 ± 22	182.99 ± 18
315 K	215.51 ± 22	183.55 ± 19
316 K	216.08 ± 22	184.12 ± 19
317 K	216.83 ± 22	184.68 ± 19
318 K	217.59 ± 22	185.25 ± 19
319 K	218.35 ± 22	185.81 ± 19
320 K	218.91 ± 22	186.37 ± 19
321 K	219.67 ± 22	186.94 ± 19
322 K	220.23 ± 22	187.5 ± 19
323 K	221.37 ± 22	188.06 ± 19
324 K	222.31 ± 22	188.62 ± 19
325 K	223.07 ± 23	189.19 ± 19
326 K	223.82 ± 23	189.75 ± 19
327 K	224.58 ± 23	190.31 ± 19
328 K	225.14 ± 23	190.87 ± 19
329 K	225.71 ± 23	191.43 ± 19
330 K	226.09 ± 23	191.98 ± 19
331 K	226.84 ± 23	192.54 ± 19
332 K	227.6 ± 23	193.1 ± 20
333 K	228.17 ± 23	193.66 ± 20
334 K	228.92 ± 23	194.21 ± 20
335 K	229.49 ± 23	194.77 ± 20
336 K	230.24 ± 23	195.32 ± 20
337 K	230.62 ± 23	195.88 ± 20
338 K	231.19 ± 23	196.43 ± 20
339 K	231.76 ± 23	196.98 ± 20
340 K	232.51 ± 23	197.54 ± 20
341 K	233.08 ± 24	198.09 ± 20
342 K	233.83 ± 24	198.64 ± 20
343 K	234.21 ± 24	199.19 ± 20
344 K	234.97 ± 24	199.74 ± 20
345 K	235.53 ± 24	200.29 ± 20
346 K	236.1 ± 24	200.84 ± 20
347 K	236.67 ± 24	201.38 ± 20
348 K	237.23 ± 24	201.93 ± 20
349 K	237.99 ± 24	202.48 ± 20
350 K	238.56 ± 24	203.02 ± 21
351 K	238.93 ± 24	203.56 ± 21
352 K	239.69 ± 24	204.11 ± 21
353 K	240.07 ± 24	204.65 ± 21

Details	Molar enthalpy of transition or fusion [kJ/mol]	Normal melting temperature [°C]
[2]	19 ± 0.9	–
[3]	–	177.7 ± 0.9

[4]
Details	molar enthalpy [kJ/mol]
DSC	71.4 ± 3.1
Static calorimetry	72 ± 4.4
